Measured values as given in patent US20190389865A1, “SUBSTITUTED PYRROLO[1,2-a]TRIAZINES AND RELATED COMPOUNDS AND THEIR USE IN THE TREATMENT OF MEDICAL DISORDERS” (Lysosomal Therapeutics Inc., priority 2016, published 2019).
Values after ≈ are worked out from the molar mass of the structure shown.

How the values were obtained:
[1] = molecular target: T1, glucocerebrosidase (Gcase) (Homo sapiens, UniProt P04062); assay: Glucocerebrosidase (Gcase) activation assay, 4-methylumbelliferyl-beta-D-glucopyranoside substrate, fluorescence; type: biochemical; conditions: 10 nM GCase, 100 nM saposin C, pH 4.7; for activation at 0.1 µM: 0.1 μM test compound, read-out: Percent Gcase Activation, 0.1 μM Test Compound; for activation at 1 µM: 1 μM test compound, read-out: Percent Gcase Activation, 1 μM Test Compound
T1 sequence (P04062 40-536): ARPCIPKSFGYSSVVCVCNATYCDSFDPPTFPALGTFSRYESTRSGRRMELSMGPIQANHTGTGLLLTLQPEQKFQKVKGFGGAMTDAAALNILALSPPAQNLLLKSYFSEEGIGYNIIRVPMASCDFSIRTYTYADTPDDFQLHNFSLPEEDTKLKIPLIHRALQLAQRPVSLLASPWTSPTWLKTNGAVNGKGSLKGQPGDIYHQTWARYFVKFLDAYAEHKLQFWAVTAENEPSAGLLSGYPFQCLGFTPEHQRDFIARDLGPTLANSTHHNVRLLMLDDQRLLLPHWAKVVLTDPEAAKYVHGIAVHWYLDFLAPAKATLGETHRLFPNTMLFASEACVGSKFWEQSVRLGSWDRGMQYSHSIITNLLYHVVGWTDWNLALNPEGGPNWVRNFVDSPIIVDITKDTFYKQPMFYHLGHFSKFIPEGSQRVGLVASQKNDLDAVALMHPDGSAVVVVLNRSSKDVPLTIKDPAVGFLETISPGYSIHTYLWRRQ
Method: The ability of exemplary compounds to activate glucocerebrosidase (Gcase) was measured.
A 484 μL aliquot of a 1.0 mg/mL solution of phosphatidylserine (PS) (Sigma P7769) in chloroform was evaporated under a stream of nitrogen for 1 hour. The lipid film was dissolved over 4 minutes of vigorous vortexing in 40 mL of 176 mM K2HPO4/50 mM citric acid (pH 4.7) containing 7.5 μL of triton X-100, resulting in a mixed micellar preparation with a composition of 0.32 mM triton and 0.37 mol % PS. 4-Methylumbelliferyl-beta-D-glucopyranoside (ACROS-337025000) was dissolved in the micellar solution to a final concentration of 2 mM for use as the reaction substrate.
Test compounds were diluted to the desired concentrations with dimethylsulfoxide (DMSO) from 10 mM stocks, and 0.41 μL of the DMSO compound mixture was added to 100 μL of micellar solution containing 10 nM GCase and 100 nM saposin C (Enzo ALX-201-262-C050). Pre-incubation was allowed to occur for 30 minutes at room temperature, after which the reaction was initiated by combining 25 μL of substrate solution with 25 μL of compound/GCase/saposin mixture. The reaction proceeded for 15 minutes at room temperature and was stopped by adding 150 μL of 1M glycine, pH 12.5. The endpoint of the reaction was monitored by measuring fluorescence intensity (excitation: 365 nm; emission: 440 nm) on a SpectraMax i3 instrument (Molecular Devices). […]

[2] = Compound solubility in water; type: physicochemical

SMILES | activation at 0.1 µM [1] | activation at 1 µM [1] | solubility [2]
Cc1nc(C)c2cccc(C(=O)NC3CCCc4ccccc43)c2n1 (stereo not drawn) [2,4-Dimethyl-N-(1,2,3,4-tetrahydronaphthalen-1-yl)quinazoline-8-carboxamide] | < 5% | 5 to 20% | 5 µg/mL (≈ 15.1 µM)
CCC(NC(=O)c1ccn2c(C)nc(C)nc12)c1ccccc1 (stereo not drawn) [2,4-Dimethyl-N-(1-phenylpropyl)pyrrolo[1,2-a][1,3,5]triazine-8-carboxamide] | 5 to 20% | > 20% | 17.4 µg/mL (≈ 56.4 µM)
CCC(NC(=O)c1cccc2c(C)nc(C)nc12)c1ccccc1 (stereo not drawn) [2,4-Dimethyl-N-(1-phenylpropyl)quinazoline-8-carboxamide] | < 5% | 5 to 20% | 8.7 µg/mL (≈ 27.2 µM)
CCCCCO[C@H]1CC[C@H](NC(=O)c2ccn3c(C)nc(C)nc23)CC1 [2,4-Dimethyl-N-((1S,4S)-4-(pentyloxy)cyclohexyl) pyrrolo[1,2-a][1,3,5]triazine-8-carboxamide] | 5 to 20% | > 20% | 12.5 µg/mL (≈ 35 µM)
Cc1nc(-c2cccc(C#N)c2)nc2c(C(=O)NC(C3CC3)C(F)(F)F)ccn12 (stereo not drawn) [2-(3-Cyanophenyl)-N-(1-cyclopropyl-2,2,2-trifluoroethyl)-4-methylpyrrolo[1,2-a][1,3,5]triazine-8-carboxamide] | > 20% | > 20% | 0.6 µg/mL (≈ 1.5 µM)
COc1cc(-c2nc(C)n3ccc(C(=O)NC(C)C(F)(F)F)c3n2)ccc1F (stereo not drawn) [2-(4-Fluoro-3-methoxyphenyl)-4-methyl-N-(1,1,1-trifluoropropan-2-yl)pyrrolo[1,2-a][1,3,5]triazine-8-carboxamide] | > 20% | > 20% | 1 µg/mL (≈ 2.52 µM)
Cc1nc(C)n2ccc(C(=O)NC(C3CC3)C(F)(F)F)c2n1 (stereo not drawn) [N-(1-Cyclopropyl-2,2,2-trifluoroethyl)-2,4-dimethylpyrrolo[1,2-a][1,3,5]triazine-8-carboxamide] | 5 to 20% | > 20% | 28.2 µg/mL (≈ 90.3 µM)
Cc1nc(-c2cccc(F)c2)nc2c(C(=O)NC(C3CC3)C(F)(F)F)ccn12 (stereo not drawn) [N-(1-Cyclopropyl-2,2,2-trifluoroethyl)-2-(3-fluorophenyl)-4-methylpyrrolo[1,2-a][1,3,5]triazine-8-carboxamide] | > 20% | > 20% | 0.2 µg/mL (≈ 0.51 µM)
Cc1nc(C)n2ccc(C(=O)Nc3ccc4c(c3)CCC4)c2n1 [N-(2,3-Dihydro-1H-inden-5-yl)-2,4-dimethylpyrrolo[1,2-a][1,3,5]triazine-8-carboxamide] | < 5% | > 20% | 1.2 µg/mL (≈ 3.92 µM)
Cc1nc(C)c2cccc(C(=O)Nc3ccc4c(c3)CCC4)c2n1 [N-(2,3-Dihydro-1H-inden-5-yl)-2,4-dimethylquinazoline-8-carboxamide] | < 5% | 5 to 20% | 0.5 µg/mL (≈ 1.58 µM)
Cc1nc(C)n2ccc(C(=O)NC(C)(C)C3CC3)c2n1 [N-(2-Cyclopropylpropan-2-yl)-2,4-dimethylpyrrolo[2-a][1,3,5]triazine-8-carboxamide] | < 5% | 5 to 20% | 38.4 µg/mL (≈ 141 µM)
C#Cc1ccc(NC(=O)c2cccc3c(C)nc(C)nc23)cc1 [N-(4-Ethynylphenyl)-2,4-dimethylquinazoline-8-carboxamide] | < 5% | < 5% | 0.7 µg/mL (≈ 2.32 µM)

More lines, now with the values ahead:

activation at 0.1 µM [1] | activation at 1 µM [1] | solubility [2] | SMILES
5 to 20% | > 20% | 5.1 µg/mL (≈ 15.3 µM) | Cc1nc(C)n2ccc(C(=O)NC3(C)CCCc4ccccc43)c2n1 (stereo not drawn) [2,4-Dimethyl-N-(1-methyl-1,2,3,4-tetrahydronaphthalen-1-yl)pyrrolo[1,2-a][1,3,5]triazine-8-carboxamide]
< 5% | 5 to 20% | 7.6 µg/mL (≈ 20.6 µM) | CCCCCO[C@H]1CC[C@H](NC(=O)c2cccc3c(C)nc(C)nc23)CC1 [2,4-Dimethyl-N-((1R,4R)-4-(pentyloxy)cyclohexyl)quinazoline-8-carboxamide]
> 20% | > 20% | 1.9 µg/mL (≈ 4.55 µM) | Cc1nc(-c2cccc(C(N)=O)c2)nc2c(C(=O)NC(C3CC3)C(F)(F)F)ccn12 (stereo not drawn) [2-(3-Carbamoylphenyl)-N-(1-cyclopropyl-2,2,2-trifluoroethyl)-4-methylpyrrolo[1,2-a][1,3,5]triazine-8-carboxamide]
> 20% | > 20% | 0.1 µg/mL (≈ 0.255 µM) | Cc1nc(-c2ccc(F)cc2)nc2c(C(=O)NC(C3CC3)C(F)(F)F)ccn12 (stereo not drawn) [N-(1-Cyclopropyl-2,2,2-trifluoroethyl)-2-(4-fluorophenyl)-4-methylpyrrolo[1,2-a][1,3,5]triazine-8-carboxamide]
< 5% | > 20% | 0.5 µg/mL (≈ 1.42 µM) | Cc1nc(-c2ccc(F)cc2)nc2c(C(=O)NC(C)(C)C3CC3)ccn12 [N-(2-Cyclopropylpropan-2-yl)-2-(4-fluorophenyl)-4-methylpyrrolo[1,2-a][1,3,5]triazine-8-carboxamide]
< 5% | > 20% | 1.8 µg/mL (≈ 6.2 µM) | C#Cc1ccc(NC(=O)c2ccn3c(C)nc(C)nc23)cc1 [N-(4-Ethynylphenyl)-2,4-dimethylpyrrolo[1,2-a][1,3,5]triazine-8-carboxamide]
